The target in test [1] is mouse TAAR1 (Mus musculus (Mouse), UniProt Q923Y8). Put plainly: Radioligand binding assay on mouse TAAR1. The settings on record: mouse TAAR1, membranes of stably transfected HEK-293 cells; first value of mouse/rat pair. The protocol: (§1) Construction of TAAR Expression Plasmids and Stably Transfected Cell Lines
(§2) For the construction of expression plasmids the coding sequences of human, rat and mouse TAAR 1 were amplified from genomic DNA essentially as described by Lindemann et al.. The Expand High Fidelity PCR System (Roche Diagnostics) was used with 1.5 mM Mg^2+ and purified PCR products were cloned into pCR2.1-TOPO cloning vector (Invitrogen) following the instructions of the manufacturer. PCR products were subcloned into the pIRESneo2 vector (BD Clontech, Palo Alto, Calif.), and expression vectors were sequence verified before introduction in cell lines.
(§3) HEK293 cells (ATCC # CRL-1573) were cultured essentially as described by Lindemann et al. (2005). For the generation of stably transfected cell lines HEK293 cells were transfected with the pIRESneo2 expression plasmids containing the TAAR coding sequences (described above) with Lipofectamine 2000 (Invitrogen) according to the instructions of the manufacturer, and 24 hrs post transfection the culture medium was supplemented with 1 mg/ml G418 (Sigma, Buchs, Switzerland). After a culture period of about 10 d clones were isolated, expanded and tested for responsiveness to trace amines (all compounds purchased from Sigma) with the cAMP Biotrak Enzyme immunoassay (EIA) System (Amersham) following the non-acetylation EIA procedure provided by the manufacturer.
Radioligand Binding Assay on Mouse TAAR1
(§4) Membrane Preparation and Radioligand Binding.
(§5) HEK-293 cells stably expressing mouse TAAR1 were maintained at 37° C. and 5% CO2 in DMEM high glucose medium, containing fetal calf serum (10%, heat inactivated for 30 min at 56° C.), penicillin/streptomycin (1%), and 375 μg/ml geneticin (Gibco). Cells were released from culture flasks using trypsin/EDTA, harvested, washed twice with ice-cold PBS (without Ca^2+ and Mg^2+), pelleted at 1′000 rpm for 5 min at 4° C., frozen and stored at −80° C. Frozen pellets were suspended in 20 ml HEPES-NaOH (20 mM, pH 7.4) containing 10 mM EDTA and homogenized with a Polytron (PT 6000, Kinematica) at 14,000 rpm for 20 s. The homogenate was centrifuged at 48,000×g for 30 min at 4° C. Subsequently, the supernatant was removed and discarded, and the pellet resuspended in 20 ml HEPES-NaOH (20 mM, pH 7.4) containing 0.1 mM EDTA using the Polytron (20 s at 14,000 rpm). This procedure was repeated and the final pellet resuspended in HEPES-NaOH containing 0.1 mM EDTA and homogenized using the Polytron. Typically, aliquots of 2 ml membrane portions were stored at −80° C. With each new membrane batch the dissociation constant (Kd) was determined via a saturation curve. […] Nonspecific binding was defined as the amount of ^3[H]—(S)-4-[(ethyl-phenyl-amino)-methyl]-4,5-dihydro-oxazol-2-ylamine bound in the presence of 10 μM unlabeled ligand. All compounds were tested at a broad range of concentrations (10 pM to 10 μM) in duplicates. […] The 96 deep well plates were incubated for 1 hr at 4° C. Incubations were terminated by rapid filtration through Unifilter-96 plates (Packard Instrument Company) and glass filters GF/C (Perkin Elmer) presoaked for 1 hr in polyethylenimine (0.3%) and washed 3 times with 1 ml of cold binding buffer. After addition of 45 μl of Microscint 40 (PerkinElmer) the Unifilter-96 plate was sealed and after 1 hr the radioactivity counted using a TopCount Microplate Scintillation Counter (Packard Instrument Company).

Test [2] addresses rat TAAR1 (Rattus norvegicus (Rat), UniProt Q923Y9). Put plainly: Radioligand binding assay on rat TAAR1. The settings on record: rat TAAR1, membranes of stably transfected HEK-293 cells; second value of mouse/rat pair. The protocol: as §1, §2, §3
Radioligand Binding Assay on Rat TAAR1
as §4
as §5, with “rat” for “mouse”, “[H]—(S)-4-[(ethyl-phenyl-amino)-methyl]-4,5-dihydro-oxazol-2-ylamine” for “^3[H]—(S)-4-[(ethyl-phenyl-amino)-methyl]-4,5-dihydro-oxazol-2-ylamine”

Chain of rat TAAR1 (Q923Y9 whole entry): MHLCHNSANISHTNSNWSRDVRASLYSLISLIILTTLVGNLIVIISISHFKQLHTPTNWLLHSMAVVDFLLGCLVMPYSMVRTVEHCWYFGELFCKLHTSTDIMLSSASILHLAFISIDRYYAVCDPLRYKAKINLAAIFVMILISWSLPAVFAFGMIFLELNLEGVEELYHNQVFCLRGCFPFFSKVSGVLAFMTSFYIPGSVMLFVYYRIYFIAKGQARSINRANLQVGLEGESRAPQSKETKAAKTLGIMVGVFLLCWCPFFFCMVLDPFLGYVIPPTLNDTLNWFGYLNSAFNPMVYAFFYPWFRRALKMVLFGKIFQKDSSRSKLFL
Chain of mouse TAAR1 (Q923Y8 whole entry): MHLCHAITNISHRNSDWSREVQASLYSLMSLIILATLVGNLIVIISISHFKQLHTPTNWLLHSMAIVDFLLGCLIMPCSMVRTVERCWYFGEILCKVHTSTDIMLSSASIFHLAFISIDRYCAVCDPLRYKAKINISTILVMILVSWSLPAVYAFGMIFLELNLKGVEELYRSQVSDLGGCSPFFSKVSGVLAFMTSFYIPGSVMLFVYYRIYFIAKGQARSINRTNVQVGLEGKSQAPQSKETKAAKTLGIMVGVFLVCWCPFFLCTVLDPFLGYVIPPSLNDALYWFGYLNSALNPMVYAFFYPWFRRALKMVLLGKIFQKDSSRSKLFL

In the case of `CCc1n[nH]c(C(=O)Nc2ccc3c(c2)CC[C@H](N)C3)c1C` [Example 51, (S)—N-(6-Amino-5,6,7,8-tetrahydronaphthalen-2-yl)-3-ethyl-4-methyl-1H-pyrazole-5-carboxamide], the Ki – broadly, the equilibrium dissociation constant of an inhibitor or competing ligand from its target – in test [1] is 0.0062 µM; in test [2], 0.0046 µM.
The like results for `CCn1nc(C(=O)Nc2ccc3c(c2)CC[C@H](N)C3)c(Br)c1OCC(F)F` [Example 52, (S)—N-(6-Amino-5,6,7,8-tetrahydronaphthalen-2-yl)-4-bromo-5-(2,2-difluoroethoxy)-1-ethyl-1H-pyrazole-3-carboxamide] were, in that order, 0.0128 µM and 0.0016 µM.
In the same order, the values of `CCc1ccc(Nc2ccc3c(c2)CC[C@H](N)C3)cc1` [Example 53, (S)—N6-(4-Ethylphenyl)-1,2,3,4-tetrahydronaphthalene-2,6-diamine] are 0.006 µM and 0.0083 µM.
In the case of `NC1CCc2cc(C(=O)Nc3cccc(OC(F)(F)F)c3)ccc2C1` (stereo not shown) [Example 55, 6-Amino-N-(3-(trifluoromethoxy)phenyl)-5,6,7,8-tetrahydronaphthalene-2-carboxamide], the inhibition constant Ki in test [1] was determined as 0.003 µM; in test [2], 0.0017 µM.
The like results for `CCc1ccc(NC(=O)c2ccc3c(c2)CCC(N)C3)cc1` (stereo not shown) [Example 56, 6-Amino-N-(4-ethylphenyl)-5,6,7,8-tetrahydronaphthalene-2-carboxamide] were, in that order, 0.0155 µM and 0.0456 µM.
On to `NC1CCc2cc(C(=O)Nc3ccc(Cl)cc3)ccc2C1` (stereo not shown) [Example 57, 6-Amino-N-(4-chlorophenyl)-5,6,7,8-tetrahydronaphthalene-2-carboxamide], for which the Ki turned out to be 0.0116 µM in test [1] and 0.0142 µM in test [2].
The like results for `NC1CCc2cc(C(=O)Nc3ccc(F)cc3)ccc2C1` (stereo not shown) [Example 58, 6-Amino-N-(4-fluorophenyl)-5,6,7,8-tetrahydronaphthalene-2-carboxamide] were, in that order, 0.0569 µM and 0.0964 µM.
Consider `NC1CCc2cc(C(=O)Nc3cccc(Cl)c3)ccc2C1` (stereo not shown) [Example 59, 6-Amino-N-(3-chlorophenyl)-5,6,7,8-tetrahydronaphthalene-2-carboxamide], for which the inhibition constant (Ki) stood at 0.0018 µM in test [1] and 0.0109 µM in test [2].
The like results for `NC1CCc2cc(C(=O)Nc3ccc(C4CC4)cc3)ccc2C1` (stereo not shown) [Example 60, 6-Amino-N-(4-cyclopropylphenyl)-5,6,7,8-tetrahydronaphthalene-2-carboxamide] were, in that order, 0.0096 µM and 0.0213 µM.
Turning to `N[C@H]1CCc2cc(Nc3cccc(OC(F)(F)F)c3)ccc2C1` [Example 61, (S)—N6-(3-(Trifluoromethoxy)phenyl)-1,2,3,4-tetrahydronaphthalene-2,6-diamine], the inhibitory constant (Ki) in test [1] amounted to 0.0071 µM; in test [2], 0.0049 µM.
Turning to `N[C@H]1CCc2cc(NC(=O)NCc3ccc(Cl)cn3)ccc2C1` [Example 62, (S)-1-(6-Amino-5,6,7,8-tetrahydronaphthalen-2-yl)-3-((5-chloropyridin-2-yl)methyl)urea], the Ki in test [1] was 0.0355 µM; in test [2], 0.095 µM.
As to `N[C@H]1CCc2cc(NC(=O)NCc3cccc(OC(F)(F)F)c3)ccc2C1` [Example 63, (S)-1-(6-Amino-5,6,7,8-tetrahydronaphthalen-2-yl)-3-(3-(trifluoromethoxy)benzyl)urea], the Ki was determined as 0.002 µM in test [1] and 0.0039 µM in test [2].
In the same order, the values of `CCc1ccc(NC(=O)Nc2ccc3c(c2)CC[C@H](N)C3)cc1` [Example 64, (S)-1-(6-Amino-5,6,7,8-tetrahydronaphthalen-2-yl)-3-(4-ethylphenyl)urea] are 0.003 µM and 0.0026 µM.
In the same order, the values of `N[C@H]1CCc2cc(NC(=O)Nc3ccc(OC(F)(F)F)cc3)ccc2C1` [Example 65, (S)-1-(6-Amino-5,6,7,8-tetrahydronaphthalen-2-yl)-3-(4-(trifluoromethoxy)phenyl)urea] are 0.0012 µM and 0.0003 µM.
The like results for `N[C@H]1CCc2cc(Nc3ccc(F)cc3)ccc2C1` [Example 66, (S)—N6-(4-Fluorophenyl)-1,2,3,4-tetrahydronaphthalene-2,6-diamine] were, in that order, 0.171 µM and 0.024 µM.
On to `COc1cccc(NC(=O)Nc2ccc3c(c2)CC[C@H](N)C3)c1` [Example 67, (S)-1-(6-Amino-5,6,7,8-tetrahydronaphthalen-2-yl)-3-(3-methoxyphenyl)urea], for which the Ki in test [1] was found to be 0.0075 µM; in test [2], 0.0044 µM.
Regarding `N[C@H]1CCc2cc(Nc3cccc(Cl)c3)ccc2C1` [Example 68, (S)—N6-(3-Chlorophenyl)-1,2,3,4-tetrahydronaphthalene-2,6-diamine], the Ki was found to be 0.019 µM in test [1] and 0.0099 µM in test [2].
On to `N[C@H]1CCc2cc(NC(=O)NCc3ccc(Cl)cc3)ccc2C1` [Example 69, (S)-1-(6-Amino-5,6,7,8-tetrahydronaphthalen-2-yl)-3-(4-chlorobenzyl)urea], for which the Ki turned out to be 0.0029 µM in test [1] and 0.0085 µM in test [2].
For the compound `N#Cc1ccc(NC(=O)c2ccc3c(c2)CCC(N)C3)cc1` (stereo not shown) [Example 70], the values for the Ki in test [1] and in test [2] were 0.0044 µM and 0.0032 µM, respectively.
`N[C@H]1CCc2cc(NC(=O)Nc3ccc(C4CC4)cc3)ccc2C1` [Example 72, (S)-1-(6-Amino-5,6,7,8-tetrahydronaphthalen-2-yl)-3-(4-cyclopropylphenyl)urea]: the Ki in test [1] came to 0.001 µM; in test [2], 0.0009 µM.
The like results for `N[C@H]1CCc2cc(Nc3ccc(C4CC4)cc3)ccc2C1` [Example 73, (S)—N6-(4-Cyclopropylphenyl)-1,2,3,4-tetrahydronaphthalene-2,6-diamine] were, in that order, 0.01 µM and 0.0081 µM.
In the same order, the values of `N[C@H]1CCc2cc(NC(=O)Nc3ccc(Cl)cc3)ccc2C1` [Example 74, (S)-1-(6-Amino-5,6,7,8-tetrahydronaphthalen-2-yl)-3-(4-chlorophenyl)urea] are 0.001 µM and 0.0005 µM.
As for `N[C@H]1CCc2c(ccc(NC(=O)c3ccc(Cl)nc3)c2Cl)C1` [Example 76, (S)—N-(6-Amino-1-chloro-5,6,7,8-tetrahydronaphthalen-2-yl)-6-chloronicotinamide], the Ki in test [1] was above 1.51 µM; in test [2], 0.302 µM.

For the origin of these results see patent publication US9957261B2 (Hoffmann-La Roche Inc., priority 2014, dated 2018).
